In ChEMBL document CHEMBL1909046, “DrugMatrix in vitro pharmacology data”:

Tests used:
[1] = molecular target: T1, Substance-K receptor (Homo sapiens, UniProt P21452); type: cell membranes, CHO, Membrane; conditions: cho; also: in other assays of this panel Not Active means under 50% inhibition at 10 µM
T1 sequence (P21452 whole entry): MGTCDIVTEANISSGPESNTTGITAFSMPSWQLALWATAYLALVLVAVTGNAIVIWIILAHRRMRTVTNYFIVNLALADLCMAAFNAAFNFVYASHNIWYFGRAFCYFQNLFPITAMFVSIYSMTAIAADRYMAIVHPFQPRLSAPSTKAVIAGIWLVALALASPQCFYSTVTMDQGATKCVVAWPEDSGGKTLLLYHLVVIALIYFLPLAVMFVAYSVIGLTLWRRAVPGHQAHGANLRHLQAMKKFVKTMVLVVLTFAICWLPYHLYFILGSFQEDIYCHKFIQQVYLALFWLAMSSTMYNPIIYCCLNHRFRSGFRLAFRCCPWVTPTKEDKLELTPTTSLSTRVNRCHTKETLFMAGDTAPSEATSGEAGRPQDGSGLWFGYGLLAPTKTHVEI

[2] = molecular target: T2, Neuropeptide Y receptor type 2 (Homo sapiens, UniProt P49146); type: cell membranes, KAN-TS, Membrane; conditions: kan-ts; also: in other assays of this panel Not Active means under 50% inhibition at 10 µM
T2 sequence (P49146 whole entry): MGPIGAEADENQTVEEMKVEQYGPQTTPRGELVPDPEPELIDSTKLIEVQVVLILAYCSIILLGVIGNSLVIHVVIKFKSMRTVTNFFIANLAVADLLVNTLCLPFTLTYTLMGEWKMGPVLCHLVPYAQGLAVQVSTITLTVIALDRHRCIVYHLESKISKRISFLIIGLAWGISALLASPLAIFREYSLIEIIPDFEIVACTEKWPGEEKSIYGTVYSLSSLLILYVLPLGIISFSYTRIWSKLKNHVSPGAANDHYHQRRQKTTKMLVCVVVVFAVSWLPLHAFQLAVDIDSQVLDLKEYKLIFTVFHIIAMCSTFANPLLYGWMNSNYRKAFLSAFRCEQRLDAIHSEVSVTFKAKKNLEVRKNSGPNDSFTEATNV

[3] = DRUGMATRIX: Phorbol Ester radioligand binding (ligand: [3H] PDBu); type: cell membranes, Mus musculus, ICR, Brain, Membrane; conditions: Not Active = under 50% inhibition at 10 µM
[4] = molecular target: Epidermal growth factor receptor (Homo sapiens, UniProt P00533); experiment: DRUGMATRIX: Protein Tyrosine Kinase, EGF Receptor enzyme inhibition (substrate: Poly(Glu:Tyr)); type: cell-based, Insect cells; conditions: insect cells; Not Active = under 50% inhibition at 10 µM
[5] = molecular target: Receptor tyrosine-protein kinase erbB-2 (Homo sapiens, UniProt P04626); experiment: biochemical; type: cell-based, Insect cells; conditions: insect cells;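 also: inhibition of HER2 kinase enzyme activity, measured with Poly(Glu:Tyr) as the phosphorylation substrate; in other assays of this panel Not Active means under 50% inhibition at 10 µM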
[6] = molecular target: Acetylcholinesterase (Homo sapiens, UniProt P22303); experiment: DRUGMATRIX: Acetylcholinesterase enzyme inhibition (substrate: acetylthiocholine); type: cell-based, HEK293; conditions: hek293; Not Active = under 50% inhibition at 10 µM
[7] = molecular target: Cytochrome P450 2E1 (Homo sapiens, UniProt P05181); conditions: bti-tn-5b1-4; also: in other assays of this panel Not Active means under 50% inhibition at 10 µM
Chain of Cytochrome P450 2E1 (P05181 whole entry): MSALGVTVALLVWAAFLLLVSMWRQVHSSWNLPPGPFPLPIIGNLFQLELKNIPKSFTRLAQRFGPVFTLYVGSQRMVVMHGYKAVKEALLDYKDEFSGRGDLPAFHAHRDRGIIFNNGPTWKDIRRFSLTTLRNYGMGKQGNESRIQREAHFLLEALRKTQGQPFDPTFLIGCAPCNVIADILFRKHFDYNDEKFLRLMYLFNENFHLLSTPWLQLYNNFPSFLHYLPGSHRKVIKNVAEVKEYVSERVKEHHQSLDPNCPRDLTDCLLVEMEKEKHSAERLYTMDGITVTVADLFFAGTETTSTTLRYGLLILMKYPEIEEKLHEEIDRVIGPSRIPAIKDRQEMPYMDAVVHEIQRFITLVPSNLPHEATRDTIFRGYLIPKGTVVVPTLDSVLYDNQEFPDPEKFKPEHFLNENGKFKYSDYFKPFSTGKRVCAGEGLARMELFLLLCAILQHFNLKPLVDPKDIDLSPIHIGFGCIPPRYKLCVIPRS

Chain of Epidermal growth factor receptor (P00533 whole entry): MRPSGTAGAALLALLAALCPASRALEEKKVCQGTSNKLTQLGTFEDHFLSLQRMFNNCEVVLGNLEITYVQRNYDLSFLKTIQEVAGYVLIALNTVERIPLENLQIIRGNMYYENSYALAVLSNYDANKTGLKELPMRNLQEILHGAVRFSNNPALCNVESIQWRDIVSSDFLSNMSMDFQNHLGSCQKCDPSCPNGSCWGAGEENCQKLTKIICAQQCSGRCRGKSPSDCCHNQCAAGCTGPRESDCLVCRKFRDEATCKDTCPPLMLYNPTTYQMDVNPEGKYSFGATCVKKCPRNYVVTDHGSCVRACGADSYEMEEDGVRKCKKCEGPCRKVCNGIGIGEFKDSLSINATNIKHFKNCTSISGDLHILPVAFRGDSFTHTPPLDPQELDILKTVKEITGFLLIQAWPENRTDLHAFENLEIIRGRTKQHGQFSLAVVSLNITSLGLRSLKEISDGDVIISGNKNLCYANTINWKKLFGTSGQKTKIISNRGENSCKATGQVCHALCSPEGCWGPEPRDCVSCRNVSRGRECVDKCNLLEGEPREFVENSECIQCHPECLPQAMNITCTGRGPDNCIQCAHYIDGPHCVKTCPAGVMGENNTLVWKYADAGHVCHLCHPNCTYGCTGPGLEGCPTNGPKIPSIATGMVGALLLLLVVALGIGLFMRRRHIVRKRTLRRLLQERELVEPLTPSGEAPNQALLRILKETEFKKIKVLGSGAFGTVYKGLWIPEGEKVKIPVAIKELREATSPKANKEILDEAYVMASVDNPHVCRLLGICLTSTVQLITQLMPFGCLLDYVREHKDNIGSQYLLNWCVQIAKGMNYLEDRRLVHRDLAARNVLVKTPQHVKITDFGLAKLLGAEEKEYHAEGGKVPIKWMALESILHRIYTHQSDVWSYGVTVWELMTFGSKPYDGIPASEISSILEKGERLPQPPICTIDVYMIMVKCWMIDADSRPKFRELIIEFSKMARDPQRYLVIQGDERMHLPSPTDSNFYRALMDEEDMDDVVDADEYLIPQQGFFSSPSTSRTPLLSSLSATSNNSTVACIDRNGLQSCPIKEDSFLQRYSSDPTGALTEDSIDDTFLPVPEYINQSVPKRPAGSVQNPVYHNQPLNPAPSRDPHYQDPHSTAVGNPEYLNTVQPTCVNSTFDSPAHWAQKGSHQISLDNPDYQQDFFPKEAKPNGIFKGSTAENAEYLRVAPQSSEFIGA
Chain of Acetylcholinesterase (P22303 whole entry): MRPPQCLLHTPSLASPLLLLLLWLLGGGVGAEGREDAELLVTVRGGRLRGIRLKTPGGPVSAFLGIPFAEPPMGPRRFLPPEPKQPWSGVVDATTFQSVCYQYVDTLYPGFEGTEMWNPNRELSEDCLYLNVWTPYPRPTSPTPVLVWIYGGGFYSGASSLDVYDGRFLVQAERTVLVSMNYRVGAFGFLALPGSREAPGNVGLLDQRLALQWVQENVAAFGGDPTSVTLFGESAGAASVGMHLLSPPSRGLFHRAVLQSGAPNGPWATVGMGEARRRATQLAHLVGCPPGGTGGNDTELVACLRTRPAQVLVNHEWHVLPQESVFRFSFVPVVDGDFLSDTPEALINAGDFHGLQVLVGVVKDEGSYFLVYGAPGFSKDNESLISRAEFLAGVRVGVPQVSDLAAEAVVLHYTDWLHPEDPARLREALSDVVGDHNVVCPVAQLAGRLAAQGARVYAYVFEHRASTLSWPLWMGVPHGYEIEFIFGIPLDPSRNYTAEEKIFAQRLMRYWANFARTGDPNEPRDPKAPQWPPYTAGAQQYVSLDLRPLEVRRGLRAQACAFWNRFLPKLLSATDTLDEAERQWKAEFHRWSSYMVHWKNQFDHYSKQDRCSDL
Chain of Receptor tyrosine-protein kinase erbB-2 (P04626 whole entry): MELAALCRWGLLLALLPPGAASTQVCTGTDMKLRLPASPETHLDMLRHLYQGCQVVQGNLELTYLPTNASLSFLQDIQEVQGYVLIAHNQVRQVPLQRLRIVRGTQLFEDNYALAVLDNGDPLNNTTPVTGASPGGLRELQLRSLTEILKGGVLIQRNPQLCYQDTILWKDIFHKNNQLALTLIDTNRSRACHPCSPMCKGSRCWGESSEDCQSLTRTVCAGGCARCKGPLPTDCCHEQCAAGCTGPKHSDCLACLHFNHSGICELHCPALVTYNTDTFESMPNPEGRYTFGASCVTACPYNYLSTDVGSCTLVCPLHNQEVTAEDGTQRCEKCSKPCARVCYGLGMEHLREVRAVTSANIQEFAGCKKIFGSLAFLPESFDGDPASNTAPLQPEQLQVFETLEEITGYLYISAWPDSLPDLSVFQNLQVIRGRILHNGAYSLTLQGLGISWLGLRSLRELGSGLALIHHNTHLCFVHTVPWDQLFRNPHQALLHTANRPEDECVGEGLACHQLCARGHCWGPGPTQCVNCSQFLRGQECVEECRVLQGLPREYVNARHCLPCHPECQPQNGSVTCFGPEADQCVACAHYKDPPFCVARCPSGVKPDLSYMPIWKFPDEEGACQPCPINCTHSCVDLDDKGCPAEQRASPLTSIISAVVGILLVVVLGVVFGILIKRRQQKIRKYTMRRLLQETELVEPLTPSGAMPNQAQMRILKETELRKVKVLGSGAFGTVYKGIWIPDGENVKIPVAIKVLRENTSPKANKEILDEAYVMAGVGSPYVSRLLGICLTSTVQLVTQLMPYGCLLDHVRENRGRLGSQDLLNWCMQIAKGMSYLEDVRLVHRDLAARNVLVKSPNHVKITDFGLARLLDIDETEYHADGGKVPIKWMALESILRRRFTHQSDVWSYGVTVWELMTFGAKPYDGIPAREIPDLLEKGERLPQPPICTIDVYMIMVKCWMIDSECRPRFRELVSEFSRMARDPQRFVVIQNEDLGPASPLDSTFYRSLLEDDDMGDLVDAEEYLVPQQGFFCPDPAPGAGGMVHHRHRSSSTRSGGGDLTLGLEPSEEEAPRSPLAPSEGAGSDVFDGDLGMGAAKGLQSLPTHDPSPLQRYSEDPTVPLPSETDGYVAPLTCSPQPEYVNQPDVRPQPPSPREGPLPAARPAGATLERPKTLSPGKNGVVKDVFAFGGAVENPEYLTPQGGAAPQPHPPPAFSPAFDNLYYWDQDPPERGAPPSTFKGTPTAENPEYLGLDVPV

C[C@@H]1C[C@H]2[C@@H]3CCC4=CC(=O)C=C[C@]4(C)[C@@]3(F)[C@@H](O)C[C@]2(C)[C@H]1C(=O)CO [DESOXIMETASONE]
Not Active: IC50 [1] | IC50 [2] | IC50 [3] | Ki [3] | IC50 [4] | IC50 [5] | IC50 [6] | IC50 [7] | Ki [7]

C[C@@H]1C[C@H]2[C@@H]3CCC4=CC(=O)C=C[C@]4(C)[C@@]3(F)[C@@H](O)C[C@]2(C)[C@@]1(O)C(=O)CO [DEXAMETHASONE]
Not Active: IC50 [1] | IC50 [2] | IC50 [3] | Ki [3] | IC50 [4] | IC50 [5] | IC50 [6] | IC50 [7] | Ki [7]

CN(C)CC[C@@H](c1ccc(Cl)cc1)c1ccccn1 [DEXCHLORPHENIRAMINE]
Not Active: IC50 [1] | IC50 [2] | IC50 [3] | Ki [3] | IC50 [4] | IC50 [5] | IC50 [6] | IC50 [7] | Ki [7]

C[C@@H]1CC[C@@]2(OC1)O[C@H]1[C@@H](O)[C@H]3[C@@H]4CC[C@H]5C[C@@H](O[C@@H]6O[C@H](CO)[C@H](O[C@@H]7O[C@H](CO)C(O)[C@H](O[C@@H]8OC[C@@H](O)[C@H](O)[C@H]8O)[C@H]7O[C@@H]7O[C@H](CO)[C@H](O)[C@H](O[C@@H]8O[C@H](CO)[C@@H](O)[C@H](O)[C@H]8O)[C@H]7O)[C@H](O)[C@H]6O)[C@H](O)C[C@]5(C)[C@H]4CC[C@]3(C)[C@H]1[C@@H]2C (some centres not stated) [DIGITONIN]
Not Active: IC50 [1] | IC50 [2] | IC50 [3] | Ki [3] | IC50 [4] | IC50 [5] | IC50 [6] | IC50 [7] | Ki [7]

OC(CCCN1CCCCC1)(c1ccccc1)c1ccccc1 [DIPHENIDOL]
Not Active: IC50 [1] | IC50 [2] | IC50 [3] | Ki [3] | IC50 [4] | IC50 [5] | IC50 [6] | IC50 [7] | Ki [7]

C[C@H]1O[C@@H](n2cc(F)c(=O)[nH]c2=O)[C@H](O)[C@@H]1O [DOXIFLURIDINE]
Not Active: IC50 [1] | IC50 [2] | IC50 [3] | Ki [3] | IC50 [4] | IC50 [5] | IC50 [6] | IC50 [7] | Ki [7]

Cn1c(=O)c2c(ncn2CC(O)CO)n(C)c1=O (configuration not stated) [DYPHYLLINE]
Not Active: IC50 [1] | IC50 [2] | IC50 [3] | Ki [3] | IC50 [4] | IC50 [5] | IC50 [6] | IC50 [7] | Ki [7]

CC[C@H]1CN2CCc3cc(OC)c(OC)cc3[C@@H]2C[C@@H]1C[C@H]1NCCc2cc(OC)c(OC)cc21 [EMETINE]
Not Active: IC50 [1] | IC50 [2] | IC50 [3] | Ki [3] | IC50 [4] | IC50 [5] | IC50 [6] | IC50 [7] | Ki [7]

C[C@@H](CO)NC(=O)[C@@H]1C=C2c3cccc4[nH]cc(c34)C[C@H]2N(C)C1 [ERGONOVINE]
Not Active: IC50 [1] | IC50 [2] | IC50 [3] | Ki [3] | IC50 [4] | IC50 [5] | IC50 [6] | IC50 [7] | Ki [7]

COC(=O)CCc1ccc(OCC(O)CNC(C)C)cc1 (configuration not stated) [ESMOLOL]
Not Active: IC50 [1] | IC50 [2] | IC50 [3] | Ki [3] | IC50 [4] | IC50 [5] | IC50 [6] | IC50 [7] | Ki [7]

CCC1(C)CC(=O)NC1=O (configuration not stated) [ETHOSUXIMIDE]
Not Active: IC50 [1] | IC50 [2] | IC50 [3] | Ki [3] | IC50 [4] | IC50 [5] | IC50 [6] | IC50 [7] | Ki [7]

C#C[C@]1(OC(C)=O)CC[C@H]2[C@@H]3CCC4=C[C@@H](OC(C)=O)CC[C@@H]4[C@H]3CC[C@@]21C [ETHYNODIOL DIACETATE]
Not Active: IC50 [1] | IC50 [2] | IC50 [3] | Ki [3] | IC50 [4] | IC50 [5] | IC50 [6] | IC50 [7] | Ki [7]

C=CCc1ccc(O)c(OC)c1 [EUGENOL]
Not Active: IC50 [1] | IC50 [2] | IC50 [3] | Ki [3] | IC50 [4] | IC50 [5] | IC50 [6] | IC50 [7] | Ki [7]

CC(C(=O)O)c1cccc(Oc2ccccc2)c1 (configuration not stated) [FENOPROFEN]
Not Active: IC50 [1] | IC50 [2] | IC50 [3] | Ki [3] | IC50 [4] | IC50 [5] | IC50 [6] | IC50 [7] | Ki [7]

CC(C)(C)NC(=O)[C@H]1CC[C@H]2[C@@H]3CC[C@H]4NC(=O)C=C[C@]4(C)[C@H]3CC[C@]12C [FINASTERIDE]
Not Active: IC50 [1] | IC50 [2] | IC50 [3] | Ki [3] | IC50 [4] | IC50 [5] | IC50 [6] | IC50 [7] | Ki [7]

Nc1ccn([C@@H]2O[C@H](CO)[C@@H](O)C2(F)F)c(=O)n1 [GEMCITABINE]
Not Active: IC50 [1] | IC50 [2] | IC50 [3] | Ki [3] | IC50 [4] | IC50 [5] | IC50 [6] | IC50 [7] | Ki [7]

N=C(N)NC(=O)Cc1c(Cl)cccc1Cl [GUANFACINE]
Not Active: IC50 [1] | IC50 [2] | IC50 [3] | Ki [3] | IC50 [4] | IC50 [5] | IC50 [6] | IC50 [7] | Ki [7]

NNc1nncc2ccccc12 [HYDRALAZINE]
Not Active: IC50 [1] | IC50 [2] | IC50 [3] | Ki [3] | IC50 [4] | IC50 [5] | IC50 [6] | IC50 [7] | Ki [7]
